± gives the expanded uncertainty stated by the source.
Conditions: Liquid; for mass density: 303.15 K, 95.3 kPa, Pycnometric method

SMILES | mass density | further results
Brc1ccccc1 [bromobenzene] | 1481.48 ± 1.7 kg/m3 | vapor or sublimation pressure (426.85 K): 95.3 ± 1.9 kPa
Clc1ccccc1 [chlorobenzene] | 1095.52 ± 1.1 kg/m3 | vapor or sublimation pressure (402.35 K): 95.3 ± 1.9 kPa
Cc1ccccc1 [toluene] | 857.66 ± 0.86 kg/m3 | vapor or sublimation pressure (381.65 K): 95.3 ± 1.9 kPa
O=[N+]([O-])c1ccccc1 [nitrobenzene] | 1193.4 ± 1.3 kg/m3 | vapor or sublimation pressure (483.05 K): 95.3 ± 1.9 kPa
C[S+](C)[O-] [dimethyl sulfoxide] | 1092.4 ± 1.1 kg/m3 | vapor or sublimation pressure (460.95 K): 95.3 ± 1.9 kPa
CCc1ccccc1 [ethylbenzene] | 858.2 ± 0.86 kg/m3 | vapor or sublimation pressure (406.95 K): 95.3 ± 1.9 kPa

Source: the NIST ThermoML archive (doi:10.1016/j.fluid.2007.08.001)
